# Legend:
# Details in all cases: 72 h
# Caco-2 [1] = test: drug sensitivity score (DSS) for viability; higher = more toxic; extreme values may be limits of the assay
# HepG2 [2] = test: as above
# Calu-3 [3] = test: as above
# Vero E6 [4] = test: as above
# U2OS [5] = test: as above
# Caco-2 [6] = test: relative viability EC50 (midpoint between 100% and the lowest measured viability); higher = less toxic
# HepG2 [7] = test: as above
# Calu-3 [8] = test: as above
# Vero E6 [9] = test: as above
# U2OS [10] = test: as above
# Caco-2 [11] = test: cell viability relative to DMSO; higher = less toxic
# HepG2 [12] = test: as above
# Calu-3 [13] = test: as above
# Vero E6 [14] = test: as above
# U2OS [15] = test: as above
SMILES,drug sensitivity score (Caco-2 [1]),drug sensitivity score (HepG2 [2]),drug sensitivity score (Calu-3 [3]),drug sensitivity score (Vero E6 [4]),drug sensitivity score (U2OS [5]),relative viability EC50 (Caco-2 [6]) [µM],relative viability EC50 (HepG2 [7]) [µM],relative viability EC50 (Calu-3 [8]) [µM],relative viability EC50 (Vero E6 [9]) [µM],relative viability EC50 (U2OS [10]) [µM],cell viability (Caco-2 [11]; 1 nM) [%],cell viability (Caco-2 [11]; 10 nM) [%],cell viability (Caco-2 [11]; 100 nM) [%],cell viability (Caco-2 [11]; 1000 nM) [%],cell viability (Caco-2 [11]; 10000 nM) [%],cell viability (HepG2 [12]; 1 nM) [%],cell viability (HepG2 [12]; 10 nM) [%],cell viability (HepG2 [12]; 100 nM) [%],cell viability (HepG2 [12]; 1000 nM) [%],cell viability (HepG2 [12]; 10000 nM) [%],cell viability (Calu-3 [13]; 1 nM) [%],cell viability (Calu-3 [13]; 10 nM) [%],cell viability (Calu-3 [13]; 100 nM) [%],cell viability (Calu-3 [13]; 1000 nM) [%],cell viability (Calu-3 [13]; 10000 nM) [%],cell viability (Vero E6 [14]; 1 nM) [%],cell viability (Vero E6 [14]; 10 nM) [%],cell viability (Vero E6 [14]; 100 nM) [%],cell viability (Vero E6 [14]; 1000 nM) [%],cell viability (Vero E6 [14]; 10000 nM) [%],cell viability (U2OS [15]; 1 nM) [%],cell viability (U2OS [15]; 10 nM) [%],cell viability (U2OS [15]; 100 nM) [%],cell viability (U2OS [15]; 1000 nM) [%],cell viability (U2OS [15]; 10000 nM) [%]
NNc1nncc2ccccc12 [hydralazine],0,0,2.2,0,0,> 10,> 10,> 10,> 10,> 10,104,105,91.4,108,88.3,98.4,106,128,98.5,114,95,102,89,85.3,85,98.7,101,105,105,99.3,98.4,102,99.4,101,95.8
c1ccc(C(O[C@@H]2CCCN(CCc3ccc4c(c3)OCO4)C2)c2ccccc2)cc1 [zamifenacin],0,0,0,0,0,> 10,> 10,> 10,> 10,> 10,94.8,91.7,98.6,98.3,92.5,92.6,107,92.7,108,92.1,104,99.2,97,102,92.2,96.9,102,96.7,98.3,94.9,104,99.6,98.8,98.3,96
CC(=O)Oc1ccccc1C(=O)O [aspirin],3.8,0,0,0,0,> 10,> 10,> 10,> 10,> 10,92.4,89.3,81,80,89.7,95.2,100,93.8,104,109,102,90.1,94.1,92.6,101,90.7,96.7,90,96.2,108,96.5,93.5,104,98.3,103
CN(C)C(=O)CCSC(SCCC(=O)O)c1cccc(/C=C/c2ccc3ccc(Cl)cc3n2)c1 (stereo not given) [MK-571],0,0,0,0,0,> 10,> 10,> 10,> 10,> 10,97.8,92.2,95,92.6,95.2,102,106,97.7,108,95.7,101,97.5,101,101,104,98.4,93.5,99.6,99.1,91.5,102,101,97.2,94.3,101
O=C(NCC1CCOCC1)c1cnc(Nc2ccc(Cl)cc2Cl)nc1C(F)(F)F,0,0,0,0,0,> 10,> 10,> 10,> 10,> 10,104,99.3,113,104,101,105,102,102,99.2,112,104,107,100,99.4,105,99.8,91.9,94.8,93.1,98.9,96.5,102,96,95.5,93.2
COc1c(-c2ccc3cc(NS(C)(=O)=O)ccc3c2)cc(-n2ccc(=O)[nH]c2=O)cc1C(C)(C)C [dasabuvir],0,0,0,0,0,> 10,> 10,> 10,> 10,> 10,96.2,94.5,87.8,98.9,96.3,90.4,102,90.4,102,109,94,106,93.7,97.9,104,91.5,98.3,92.8,97,106,98.5,96.9,102,96.5,96.3
CC(C)C(=O)c1c(C(C)C)nn2ccccc12 [ibudilast],0,0,0,0,0,> 10,> 10,> 10,> 10,> 10,91.2,89.9,93.3,102,107,94.5,101,109,88.8,99.2,95.7,94.1,93,104,107,96.8,97.4,98.9,94.7,103,94.6,102,97.4,104,104
